In US10039741B2, “Use of delta tocopherol for the treatment of lysosomal storage disorders” (The United States of America, as represented by the …, priority 2010, dated 2018):
Entries after “also recorded” stand apart in the source; their conditions may differ.

Assays:
Format in all cases: cell-based, human
Wolman disease cells = assay: Amplex-red cholesterol assay (total cholesterol), combination therapy
Text: (1) Amplex-red cholesterol assay. This biochemical assay (Invitrogen) uses cholesterol oxidase and a HRP-Amplex-re reporting system to measure the free cholesterol level in cells. With the addition of acid lipase to this assay, that hydrolyzes cholesterol ester to free cholesterol, the level of total cholesterol in cells including the cholesterol ester can be measured. This assay was used for detecting the total cholesterol level of in fibroblasts from patients with Wolman disease.

NPC fibroblasts = assay: Microarray gene expression; design: HMGCR expression, Toco treat NPC / SC4MOL expression, Toco treat NPC / DHCR7 expression, Toco treat NPC / MMP3 expression, Toco treat NPC: unit not given here; conditions: 40 μM delta-tocopherol 5 days vs DMSO-treated
Procedure: Five NPC fibroblast cell lines as well as five normal fibroblast cell lines were treated with 40 μM delta-tocopherol for 5 days with a medium change and sully of fresh compound on 3rd day. The total RNAs was prepared as the standard method described previously ( ). The microarray gene expression experiment was carried out in a core microarray facility at NHGRI with a set of AAAAA chips (Affymetrix). Partek Genomics Software Suite (Copyright, Partek Inc.) was used to perform analysis of microarray data. Affymetrix cell files were loaded into the software using the RMA algorithm, which involved background correction, quantile normalization, log-2 transformation, and median polish summarization. PCA and hierarchical clustering identified one sample as an outlier. This sample (sample number 12) was not considered for further analysis. ANOVA was performed to identify the differentially expressed genes for three comparisons: 1) NPC_DMSO vs WT_DMSO 2) NPC tocopherol-treated vs NPC_DMSO-treated and 3) WT_tocopherol-treated vs WT_DMSO-treated.

NPCD MSC cells [1] = assay: Lysosome size
Procedure: (§1) The adipose mesenchymal stem cells (HMSC.AD-100, HMSC-NPC22 and HMSC-NPC23) were isolated from two NPC patients as well as one heath individual and provided by Celleng-tech (Coralville, Iowa). These cells were maintained in MSC expansion media (Celleng-tech, cat# HMSC.E.Media-450) supplemented with 10% FBS 100 unit/ml penicillin and 100 μg/ml streptomycin at 5% CO2, 37° C. For neural differentiation, cells were initially plated at 30% confluency (˜2500 cells/cm^2) using MSC expansion media. After 24 hours, MSC expansion media were withdrew. Cells were washed twice with Dulbecco's phosphate Buffer saline (Invitrogen) and incubated with neural differentiation media (Celleng-tech, cat# NEU.D.Media-450) supplemented with 10% FBS, 100 unit/ml penicillin and 100 μg/ml streptomycin at 5% CO2, 37° C. for additional 3 days.

neuron-like NPCD cells [2] = assay: Lysosome size; conditions: neuron-like cells differentiated from NPCD patient MSC
Procedure: as §1

NPC cells = test system: NPC cells
Procedure: We disclose that the compound's cytotoxicity could interfere with these cell-based assays that often appeared as the false positives for cholesterol reduction and lysosome size decrease. […] Although the tocotrienol effect on these NPCD cells were observed, they were more toxic in our assays and the additional compound purification (to 99%).
To measure the cytotoxicity of compounds, an ATP content assay was used with a commercial assay kit (ATP-Lite, PerkinElmer). Cells were seeded in white solid 1536-well plates and treated with compounds same as in the cholesterol oxidase assay describe above. After 3-day compound treatment, 3 μl/well detection mixture (prepared according to the manufacturer's instructions) was added to each well and the plates were incubated for 10 min at room temperature followed by a measurement using a Viewlux plate reader in a luminescence mode. The buffer in the detection mixture lyses cells and releases cellular ATP which reacts with luciferin in the presence of luciferase to produce light. The luminescence signal reduces if the cells are killed by the compound during the 3-day treatment.

NPCD MSC cells [3] = assay: Free cholesterol accumulation
Procedure: as §1
(§2) MSC cells were seeded on coverslips on day 0 in MSC expansion medium. On day 1, cells were washed twice with warm PBS buffer and then incubated with MSC neuronal differentiation medium. On day 4, media were replaced with fresh neuronal differentiation medium. On day 6, cells were fixed with 3.2% paraformaldehyde in HBSS for 15 min. Immunocytochemistry for neuronal beta III tubulin and unesterified cholesterol (filipin staining) was performed as described. The coverslips were examined y a XXX microscope. […]

NPCD fibroblasts = assay: Filipin cholesterol staining assay; conditions: NPCD patient cells
Procedure: Filipin dye staining was used to determine the level of free cholesterol accumulation in cells (27, 28). Cells were seeded at 1000 cells/well in 100 μl medium in the black/clear bottom, tissue culture treated 96-well plates (Greiner Bio-One, Monroe, N.C.) for culture overnight or in a designated time. The cells were washed twice with the HBBS buffer and fixed with 100 μl/well 3.2% formaldehyde at room temperature for 30 minutes. After three times of plate wash with PBS buffer, cells were stained with 50 μg/ml filipin, which was freshly-dissolved in DMSO at 10 mg/ml and then diluted in PBS buffer. Samples were then washed twice with PBS buffer and stored in 4° C. On the day of imaging, cells were stained with 2 μM of CellMask Red (Invitrogen, H32711) in PBS at room temperature for 1 h. Samples were viewed and photographed using a Nikon Eclipse Ti microscope with a 20× objective equipped with CCD camera. DAPI filter and TRITC filter were used to visualize filipin and CellMask Red, respectively. The images were processed by Adobe Photoshop.

neuron-like NPCD cells [4] = assay: Filipin staining co-stained with neuronal beta III tubulin; conditions: neuron-like cells differentiated from NPCD patient MSC
Procedure: as §1, §2

## Cc1cc(O)cc2c1O[C@](C)(CCC[C@H](C)CCC[C@H](C)CCCC(C)C)CC2 [δ-tocopherol]
Wolman disease cells; 40 μM delta-tocopherol or 80 μM alpha-tocopherol alone
  cholesterol level, sole therapy: cholesterol reduction effect
Wolman disease cells; delta-tocopherol 10 μM combined with 10 μM MBCD
  cholesterol level, combination: cholesterol reduction effect
Wolman disease cells; sub-effective concentrations combined
  interaction of delta-tocopherol and cyclodextrin: synergetic or additive effect
NPC fibroblasts
  ABCA1 expression, Toco treat NPC: significantly reduced; also recorded: decreased expression
  ACACA expression, Toco treat NPC: −1.5
  DHCR7 expression, Toco treat NPC: −1.7
  FADS2 expression, Toco treat NPC: −2.5
  FRRS1 expression, Toco treat NPC: 1.1
  HMGCR expression, Toco treat NPC: decreased
  HMGCS1 expression, Toco treat NPC: −1.9
  INSIG1 expression, Toco treat NPC: −1.8
  LDLR expression, Toco treat NPC: significantly reduced; also recorded: decreased expression
  MMP1 expression, Toco treat NPC: 2.7
  MMP3 expression, Toco treat NPC: 1.7
  NOX4 expression, Toco treat NPC: −1.1
  SC4MOL expression, Toco treat NPC: −1.4
  SCD expression, Toco treat NPC: decreased
  SREBF1 expression, Toco treat NPC: −1.4
  SREBF2 expression, Toco treat NPC: −1.6
NPC fibroblasts; listed as tocopherol
  ABCA1 expression, Toco treat NPC: −2.0
  HMGCR expression, Toco treat NPC: −1.7
  LDLR expression, Toco treat NPC: −2.0
  SCD expression, Toco treat NPC: −3.9
NPCD MSC cells [1]
  lysosome size: decrease in lysosome size
neuron-like NPCD cells [2]
  lysosome size: decrease in lysosome size
NPC cells
  cytotoxicity: not present
NPCD MSC cells [3]
  accumulated free cholesterol: reduction of accumulated free cholesterol
NPCD fibroblasts
  free cholesterol accumulation (filipin staining): significantly reduced
neuron-like NPCD cells [4]
  cholesterol accumulation: significant reduction
